Data published in patent US5496849A, “Sulfonic acid derivative and its pharmaceutical application” (Toray Industries, Inc., priority 1992, dated 1996).

Columns and labels:
Thromboxane A2 Receptor = target: T1, Thromboxane A2 Receptor (Oryctolagus cuniculus, UniProt Q6WQI8); experiment: Receptor binding experiment: Thromboxane A2 Receptor Binding Test ([3H]SQ29548, washed platelets); parameters: species or system New Zealand White rabbits; conditions: rabbit washed platelets; [3H]SQ29548 3 nM; 60 minutes at 25° C.; read-out: Binding Inhibitory Action IC50 (converted)
T1 sequence (Q6WQI8 1-233): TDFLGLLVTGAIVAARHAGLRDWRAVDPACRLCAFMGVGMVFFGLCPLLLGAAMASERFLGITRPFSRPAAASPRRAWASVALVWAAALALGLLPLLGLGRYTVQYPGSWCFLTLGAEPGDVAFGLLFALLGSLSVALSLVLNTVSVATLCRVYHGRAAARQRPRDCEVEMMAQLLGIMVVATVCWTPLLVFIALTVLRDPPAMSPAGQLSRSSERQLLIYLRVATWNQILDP
Description: Whole blood from New Zealand White rabbits was collected into a container containing ACD solution (1.175 g of sodium citrate, 0.685 g of citric acid, and 1 g of dextrose dissolved in 50 ml of distilled water) followed by centrifuging at room temperature for 10 minutes at 180 ×g to obtain platelet-rich plasma. Moreover, this platelet-rich plasma was further centrifuged at room temperature and 2800 ×g to result in sedimentation of the platelets. The platelets were resuspended in 50 mM Tris hydrochloric acid buffer solution (pH 7.2, containing […]) and again centrifuged at 4° C. for 15 minutes at 2800 ×g. This procedure was repeated twice to prepare the washed platelets, and adjusted to a final concentration of 10 mg/ml (wet weight). Tritium-labelled SQ29548 ([3H]SQ29548) was used for the TXA2 ligand. In an antagonism experiment, 20 μl of [3H]SQ29548 at a final concentration of 3 nM were added to 500 μl of a 10 mg/ml platelet suspension, together with adding 2.6 μl of the test drug dissolved in a suitable buffer. After incubating for 60 minutes at 25° C., the mixture was filtered over a glass filter using the Celherbster method, the filter was washed with 50 mM Tris hydrochloric acid buffer solution (3 ×4 ml), and radioactivity was measured with a scintillation counter to determine the amount of [3H]SQ29548 bound to the platelets. In addition, in a saturation test, 20 μl of [3H]SQ29548 were added to a final concentration of 0.1-50 nM followed by the addition of 2.6 μl of BM13505 at a final concentration of 1 μM in order to examine non-specific binding and carry out a binding experiment. The concentration of the test drug which inhibited binding of [3H]SQ29548 by 50% was determined as the IC50 value.

[1] = system: platelet aggregation induced by U-46619 in human platelet-rich plasma (PRP); experiment: Platelet aggregation inhibitory action (U-46619-induced, human platelet-rich plasma); assay type: cell-based; conditions: compounds added 1 minute before U-46619, turbidity
Description: Human whole blood drawn from the median cubital vein was centrifuged for 10 minutes at 800 rpm, and the upper portion was collected as platelet-rich plasma (PRP). […] The size of the aggregates were measured with a platelet aggregate measuring instrument (Hematracer 1, Nikko Bioscience) as the change in turbidity. The compounds were added 1 minute before addition of U-46619, and the concentration which inhibits aggregation by 50% was calculated as the IC50 value.

## CCCCS(=O)(=O)N[C@@H]1[C@H]2c3cccc(OCC(=O)O)c3O[C@H]2C[C@H]1O (racemic) [(82), (1RS, 2RS, 3aSR, 8bRS)-1-butanesulfonamido-2-hydroxy-2,3,3a,8b-tetrahydro-1H-cyclopenta[b]benzofuran-5-yloxyacetic acid]
Thromboxane A2 Receptor
  IC50: 1.22 µM
[1]
  IC50: 1 µM

## O=C(O)COc1cccc2c1O[C@H]1C[C@@H](O)[C@H](NS(=O)(=O)CCc3ccccc3)[C@@H]21 (racemic) [(76), (1RS, 2RS, 3aSR, 8bRS)-1-(2-phenylethanesulfonamido)-2-hydroxy-2,3,3a,8b-tetrahydro-1H-cyclopenta[b]benzofuran-5-yloxyacetic acid]
Thromboxane A2 Receptor
  IC50: 0.122 µM
[1]
  IC50: 0.55 µM

## O=C(O)COc1cccc2c1O[C@H]1C[C@@H](O)[C@H](NS(=O)(=O)Cc3ccccc3)[C@@H]21 (racemic) [(74), (1RS, 2RS, 3aSR, 8bRS)-1-phenylmethanesulfonamido-2-hydroxy-2,3,3a,8b-tetrahydro-1H-cyclopenta[b]benzofuran-5-yloxyacetic acid]
Thromboxane A2 Receptor
  IC50: 0.858 µM
[1]
  IC50: 5.3 µM

## O=C(O)COc1cccc2c1O[C@H]1CC[C@H](OS(=O)(=O)c3ccc(F)cc3)[C@@H]21 (racemic) [(127), (1SR, 3aSR, 8bSR)-1-((p-fluorophenyl)sulfonyloxy)-2,3,3a,8b-tetrahydro-1H-cyclopenta[b]benzofuran-5-yloxyacetic acid]
[1]
  IC50: 0.1 µM

## O=C(O)COc1cccc2c1O[C@H]1CC[C@H](OS(=O)(=O)c3ccc(Cl)cc3)[C@@H]21 (racemic) [(125), (1SR, 3aSR, 8bSR)-1-((p-chlorophenyl)sulfonyloxy)-2,3,3a,8b-tetrahydro-1H-cyclopenta[b]benzofuran-5-yloxyacetic acid]
[1]
  IC50: 0.094 µM

## O=C(O)COc1cccc2c1O[C@H]1C[C@@H](O)[C@H](NS(=O)(=O)c3ccc(C(F)(F)F)cc3)[C@@H]21 (racemic) [(65), (1RS, 2RS, 3aSR, 8bRS)-1-(p-trifluoromethylbenzenesulfonamido)-2-hydroxy-2,3,3a,8b-tetrahydro-1H-cyclopenta [b]benzofuran-5-yloxyacetic acid]
Thromboxane A2 Receptor
  IC50: 0.0972 µM
[1]
  IC50: 0.27 µM

## COC(=O)COc1cccc2c1O[C@H]1C[C@@H](O)[C@H](CNS(=O)(=O)c3ccccc3)[C@@H]21 (racemic) [(96), (1SR, 2RS, 3aSR, 8bSR)-1-((benzenesulfonamido)methyl)-2-hydroxy-2,3,3a,8b-tetrahydro-1H-cyclopenta[b]benzofuran-5-yloxyacetic acid methyl ester]
Thromboxane A2 Receptor
  IC50: 0.415 µM
[1]
  IC50: 0.67 µM

## O=C(O)CCCc1cccc2c1O[C@H]1C[C@@H](O)[C@H](NS(=O)(=O)c3ccccc3)[C@@H]21 (racemic) [(45), (1RS, 2RS, 3aSR, 8bRS)-1-benzenesulfonamido-2-hydroxy-2,3,3a,8b-tetrahydro-1H-cyclopenta[b]benzofuran-5-butyric acid]
Thromboxane A2 Receptor
  IC50: 4.79 µM
[1]
  IC50: 4.3 µM

## CCCCCCCCS(=O)(=O)N[C@@H]1[C@H]2c3cccc(OCC(=O)O)c3O[C@H]2C[C@H]1O (racemic) [(84), (1RS, 2RS, 3aSR, 8bRS)-1-octanesulfonamido-2-hydroxy-2,3,3a,8b-tetrahydro-1H-cyclopenta[b]benzofuran-5-yloxyacetic acid]
Thromboxane A2 Receptor
  IC50: 1.22 µM
[1]
  IC50: 7.3 µM

## Cc1ccc(S(=O)(=O)O[C@H]2CC[C@@H]3Oc4c(OCC(=O)O)cccc4[C@@H]32)cc1 (racemic) [(123), (1SR, 3aSR, 8bSR)-1-((p-tolyl)sulfonyloxy)-2,3,3a,8b-tetrahydro-1H-cyclopenta[b]benzofuran-5-yloxyacetic acid]
[1]
  IC50: 0.093 µM

## O=C(O)COc1cccc2c1O[C@H]1C[C@@H](O)[C@H](NS(=O)(=O)c3ccc4ccccc4c3)[C@@H]21 (racemic) [(78), (1RS, 2RS, 3aSR, 8bRS)-1-(2-naphthalenesulfonamido)-2-hydroxy-2,3,3a,8b-tetrahydro-1H-cyclopenta[b]benzofuran-5-yloxyacetic acid]
Thromboxane A2 Receptor
  IC50: 0.00209 µM
[1]
  IC50: 0.051 µM
